Assay results as given in patent US8927717B1, “Thiochromeno[2,3-c]quinolin-12-one derivatives, preparation method and application thereof” (National Defense Medical Center, priority 2014, dated 2015).

Experiments:
Assay type in all cases: cell-based
CCRF-CEM = settings: CCRF-CEM; 10^−5 molar
HL-60(TB) = settings: HL-60(TB); 10^−5 molar
K-562 = settings: K-562; 10^−5 molar
RPMI-8226 = settings: RPMI-8226; 10^−5 molar
SR = settings: SR; 10^−5 molar
HOP-62 = settings: HOP-62; 10^−5 molar
NCI-H226 = settings: NCI-H226; 10^−5 molar
NCI-H460 = settings: NCI-H460; 10^−5 molar
NCI-H522 = settings: NCI-H522; 10^−5 molar
COLO 205 = settings: COLO 205; 10^−5 molar
HCT-116 = settings: HCT-116; 10^−5 molar
HCT-15 = settings: HCT-15; 10^−5 molar
HT29 = settings: HT29; 10^−5 molar
KM12 = experiment: cells; settings: KM12; 10^−5 molar
SW-620 = settings: SW-620; 10^−5 molar
SF-295 = settings: SF-295; 10^−5 molar
SNB-19 = settings: SNB-19; 10^−5 molar
SNB-75 = settings: SNB-75; 10^−5 molar
U251 = settings: U251; 10^−5 molar
LOX IMVI = settings: LOX IMVI; 10^−5 molar
M14 = settings: M14; 10^−5 molar
SK-MEL-28 = settings: SK-MEL-28; 10^−5 molar
SK-MEL-5 = settings: SK-MEL-5; 10^−5 molar
OVCAR-5 = settings: OVCAR-5; 10^−5 molar
OVCAR-8 = settings: OVCAR-8; 10^−5 molar
NCI/ADR-RES = settings: NCI/ADR-RES; 10^−5 molar
SK-OV-3 = settings: SK-OV-3; 10^−5 molar
A498 = settings: A498; 10^−5 molar
RXF 393 = settings: RXF 393; 10^−5 molar
SN12C = settings: SN12C; 10^−5 molar
TK-10 = settings: TK-10; 10^−5 molar
PC-3 = settings: PC-3; 10^−5 molar
DU-145 = settings: DU-145; 10^−5 molar
MCF7 = settings: MCF7; 10^−5 molar
MDA-MB-231/ATCC = settings: MDA-MB-231/ATCC; 10^−5 molar
HS 578T = settings: HS 578T; 10^−5 molar
BT-549 = settings: BT-549; 10^−5 molar
T-47D = settings: T-47D; 10^−5 molar
60 cancer cell lines = experiment: NCI 60-cell screen, SRB, whole panel (mean, delta, range); settings: 10^−5 molar; for Growth percent, Delta: delta over panel; for Growth percent, Mean: mean over panel; for Growth percent, Range: range over panel

## O=c1c2cc(Cl)ccc2sc2c(NCc3ccc4c(c3)OCO4)nc3ccccc3c12 [Compound N27, 6-((Benzo[d][1,3]dioxol-5-ylmethyl)amino)-10-chloro-12H-thiochromeno[2,3-c]quinolin-12-one]
CCRF-CEM
  Growth percent: 88.86%
HL-60(TB)
  Growth percent: 112.12%
K-562
  Growth percent: 80.37%
RPMI-8226
  Growth percent: 96.35%
SR
  Growth percent: 79.57%
HOP-62
  Growth percent: 78.01%
NCI-H226
  Growth percent: 53.50%
NCI-H460
  Growth percent: 76.71%
NCI-H522
  Growth percent: 78.43%
COLO 205
  Growth percent: 87.63%
HCT-116
  Growth percent: 69.98%
HCT-15
  Growth percent: 77.41%
HT29
  Growth percent: 82.91%
KM12
  Growth percent: 87.96%
SW-620
  Growth percent: 76.95%
SF-295
  Growth percent: 94.39%
SNB-19
  Growth percent: 97.62%
SNB-75
  Growth percent: 57.14%
U251
  Growth percent: 81.03%
LOX IMVI
  Growth percent: 78.69%
M14
  Growth percent: 94.93%
SK-MEL-28
  Growth percent: 88.24%
SK-MEL-5
  Growth percent: 79.86%
OVCAR-5
  Growth percent: 84.38%
OVCAR-8
  Growth percent: 79.45%
NCI/ADR-RES
  Growth percent: 91.11%
SK-OV-3
  Growth percent: 82.87%
A498
  Growth percent: 75.91%
RXF 393
  Growth percent: 74.20%
SN12C
  Growth percent: 85.53%
TK-10
  Growth percent: 116.79%
PC-3
  Growth percent: 78.54%
DU-145
  Growth percent: 72.44%
MCF7
  Growth percent: 43.53%
MDA-MB-231/ATCC
  Growth percent: 54.65%
HS 578T
  Growth percent: 70.49%
BT-549
  Growth percent: 111.06%
T-47D
  Growth percent: 74.41%
60 cancer cell lines
  Growth percent, Delta: 36.65%
  Growth percent, Mean: 81.18%
  Growth percent, Range: 73.26%

## COc1ccc(CCNc2nc3ccccc3c3c(=O)c4cc(Cl)ccc4sc23)cc1 [Compound N31, 10-Chloro-6-((4-methoxyphenethyl)amino)-12H-thiochromeno[2,3-c]quinolin-12-one]
CCRF-CEM
  Growth percent: 100.93%
HL-60(TB)
  Growth percent: 94.27%
K-562
  Growth percent: 91.76%
RPMI-8226
  Growth percent: 99.98%
SR
  Growth percent: 94.13%
HOP-62
  Growth percent: 90.07%
NCI-H226
  Growth percent: 72.39%
NCI-H460
  Growth percent: 98.14%
NCI-H522
  Growth percent: 93.69%
COLO 205
  Growth percent: 105.41%
HCT-116
  Growth percent: 98.46%
HCT-15
  Growth percent: 100.67%
HT29
  Growth percent: 120.78%
KM12
  Growth percent: 109.46%
SW-620
  Growth percent: 97.10%
SF-295
  Growth percent: 95.31%
SNB-19
  Growth percent: 96.74%
SNB-75
  Growth percent: 74.50%
U251
  Growth percent: 98.72%
LOX IMVI
  Growth percent: 87.78%
M14
  Growth percent: 100.06%
SK-MEL-28
  Growth percent: 99.41%
SK-MEL-5
  Growth percent: 85.38%
OVCAR-5
  Growth percent: 100.83%
OVCAR-8
  Growth percent: 97.83%
NCI/ADR-RES
  Growth percent: 103.78%
SK-OV-3
  Growth percent: 96.11%
A498
  Growth percent: 99.56%
RXF 393
  Growth percent: 88.50%
SN12C
  Growth percent: 94.23%
TK-10
  Growth percent: 132.57%
PC-3
  Growth percent: 84.95%
DU-145
  Growth percent: 107.03%
MCF7
  Growth percent: 59.13%
MDA-MB-231/ATCC
  Growth percent: 82.31%
HS 578T
  Growth percent: 87.49%
BT-549
  Growth percent: 105.24%
T-47D
  Growth percent: 69.90%
60 cancer cell lines
  Growth percent, Delta: 39.45%
  Growth percent, Mean: 93.38%
  Growth percent, Range: 78.64%
